This note sets out measurements from ChEMBL document CHEMBL1140703, “Design, synthesis, and biological evaluation of classical and nonclassical 2-amino-4-oxo-5-substituted-6-methylpyrrolo[3,2-d]pyrimidines as dual thymidylate synthase and dihydrofolate reductase inhibitors” (J Med Chem, 2008).

The target of experiment [1] is Thymidylate synthase (Escherichia coli, UniProt C3SWJ7). The experiment is described as follows: Inhibition of Escherichia coli thymidylate synthase.
A further experiment addresses T1, Dihydrofolate reductase (Homo sapiens, UniProt P00374).
T1 sequence (P00374 whole entry): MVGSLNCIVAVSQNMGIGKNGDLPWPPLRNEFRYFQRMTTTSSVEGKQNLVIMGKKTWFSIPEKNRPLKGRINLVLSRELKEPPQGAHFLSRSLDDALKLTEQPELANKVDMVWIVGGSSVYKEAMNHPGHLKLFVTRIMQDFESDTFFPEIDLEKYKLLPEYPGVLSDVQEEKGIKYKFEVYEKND

Experiment [2] is described as follows: Inhibition of Toxoplasma gondii thymidylate synthase.
The test system of experiment [3] is Escherichia coli. The experiment is described as follows: Inhibition of Escherichia coli DHFR at >[…] uM.
Experiment [4] can be described thus: Inhibition of Toxoplasma gondii DHFR.
The nature of experiment [5]: Inhibition of Escherichia coli DHFR.
Experiment [6] has as its target Thymidylate synthase (Homo sapiens, UniProt P04818). The experiment is described as follows: Inhibition of human thymidylate synthase.
A short description of experiment [7]: Selectivity ratio of IC50 for Toxoplasma gondii DHFR over IC50 for human recombinant DHFR.
Experiment [8] concerns the target Thymidylate synthase (Escherichia coli) (UniProt C3SWJ7). The experiment is described as follows: Inhibition of Escherichia coli thymidylate synthase at >[…] uM.
For experiment [9] the target is unchanged. The experiment in a line: Inhibition of Escherichia coli thymidylate synthase >[…] uM.
The test system of experiment [10] is Toxoplasma gondii. The experiment in a line: Inhibition of Toxoplasma gondii thymidylate synthase at >[…] uM.
Experiment [11] relates to Escherichia coli. The experiment is described as follows: Inhibition of Escherichia coli DHFR at >30 uM.
Experiment [12] addresses T2, Dihydrofolate reductase (Homo sapiens) (UniProt P00374).
T2 sequence (whole entry): T1 sequence (P00374 whole entry)
The experiment is described as follows: Inhibition of human recombinant DHFR at >62 uM.

Experiment [13] concerns Toxoplasma gondii. The experiment is described as follows: Inhibition of Toxoplasma gondii thymidylate synthase at >20 uM.
For experiment [14], the target named is T2, Dihydrofolate reductase (Homo sapiens). The experiment in a line: Inhibition of human recombinant DHFR at >[…] uM.
The target of experiment [15] is Thymidylate synthase (Escherichia coli) (UniProt C3SWJ7). The experiment is described as follows: Inhibition of Escherichia coli thymidylate synthase at >20 uM.
Thymidylate synthase (Escherichia coli), sequence (C3SWJ7 1-264): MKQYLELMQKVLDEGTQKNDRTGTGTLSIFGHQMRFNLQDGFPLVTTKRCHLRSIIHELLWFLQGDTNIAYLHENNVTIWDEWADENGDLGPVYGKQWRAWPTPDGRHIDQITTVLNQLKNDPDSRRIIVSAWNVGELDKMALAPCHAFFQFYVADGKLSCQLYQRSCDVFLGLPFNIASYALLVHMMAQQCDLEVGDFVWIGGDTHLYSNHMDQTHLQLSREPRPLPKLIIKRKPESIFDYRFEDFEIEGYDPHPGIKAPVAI

Thymidylate synthase (Escherichia coli, UniProt C3SWJ7), sequence (C3SWJ7 whole entry): as the sequence (C3SWJ7 1-264) above
Thymidylate synthase (Homo sapiens, UniProt P04818), sequence (P04818 whole entry): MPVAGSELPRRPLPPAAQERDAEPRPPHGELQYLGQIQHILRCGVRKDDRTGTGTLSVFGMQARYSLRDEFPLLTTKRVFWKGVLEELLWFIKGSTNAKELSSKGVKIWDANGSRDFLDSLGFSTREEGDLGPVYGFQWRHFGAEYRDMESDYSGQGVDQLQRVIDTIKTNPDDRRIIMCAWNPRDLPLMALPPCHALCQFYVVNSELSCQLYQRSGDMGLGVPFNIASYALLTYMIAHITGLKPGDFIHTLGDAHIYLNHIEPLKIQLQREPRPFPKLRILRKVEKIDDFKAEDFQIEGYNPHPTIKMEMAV

For `Cc1cc2nc(N)[nH]c(=O)c2n1Cc1ccc(C(=O)N[C@@H](CCC(=O)O)C(=O)O)cc1`, the IC50 was 0.069 µM at Thymidylate synthase [1]; 0.12 µM at Dihydrofolate reductase; 0.23 µM in experiment [2]; 23 nM in experiment [4]; > 23 µM in [5]; 46 nM on Thymidylate synthase [6]. The inhibition in the experiment on Escherichia coli [3] came out at 23%. Besides, in experiment [7], the Ratio IC50 was 5.2.
In the case of `Cc1cc2nc(N)[nH]c(=O)c2n1Cc1ccc(F)cc1`, the IC50 on Thymidylate synthase [1] is 31 µM; against Dihydrofolate reductase it was > 37 µM; in experiment [2] it was 22 µM; in experiment [4], 1800 nM; in experiment [5] it was > 37 µM; against Thymidylate synthase [6], 3700 nM. In the experiment with Escherichia coli [3], the inhibition was determined as 0%. In addition, the Ratio IC50 in [7] is > 20.5.
Take `Cc1cc2nc(N)[nH]c(=O)c2n1Cc1cc(Cl)cc(Cl)c1`: the IC50 at Thymidylate synthase [1] is > 26 µM; on Dihydrofolate reductase, > 31 µM; in experiment [2], > 26 µM; in experiment [4] it was 15000 nM; in [5], > 31 µM; against Thymidylate synthase [6], > 26000 nM. For the same molecule, the inhibition in the experiment with Escherichia coli [3] came out at 0%; in [8], 0%; in [9], 15%; in the experiment with Toxoplasma gondii [10], 13%. The Ratio IC50 in experiment [7] is > 2.1.
Regarding `COc1ccc(Cn2c(C)cc3nc(N)[nH]c(=O)c32)cc1`, the IC50 against Thymidylate synthase [1] is 15 µM; against Dihydrofolate reductase, > 35 µM; in experiment [2], 17 µM; in experiment [4], 3500 nM; in experiment [5] it was > 35 µM; against Thymidylate synthase [6], 1500 nM. Besides, the inhibition with Escherichia coli [3] turned out to be 0%. Besides, in [7], the Ratio IC50 was > 10.
Take `Cc1[nH]c2nc(N)[nH]c(=O)c2c1Sc1ccc([N+](=O)[O-])cc1`: the IC50 against Dihydrofolate reductase is > 54 µM.
Consider `Cc1cc2nc(N)[nH]c(=O)c2n1Cc1ccc(Br)cc1`, for which the IC50 is 7.5 µM at Thymidylate synthase [1]; > 35 µM against Dihydrofolate reductase; 18 µM in [2]; 270 nM in experiment [4]; > 30 µM in experiment [5]; 1300 nM against Thymidylate synthase [6]. The inhibition in the experiment on Escherichia coli [11] turned out to be 10%. Further, the Ratio IC50 in experiment [7] is > 130.
`Cc1cc2nc(N)[nH]c(=O)c2n1Cc1ccccc1`: the IC50 is > 39 µM at Thymidylate synthase [1]; > 39 µM against Dihydrofolate reductase; > 39 µM in [2]; 3900 nM in experiment [4]; > 39 µM in experiment [5]; 20000 nM at Thymidylate synthase [6]. Moreover, in the experiment on Toxoplasma gondii [10], the inhibition stood at 0%. Moreover, the Ratio IC50 in [7] is > 10.
With `Cc1cc2nc(N)[nH]c(=O)c2n1Cc1ccc(Cl)cc1`, the IC50 is 1.5 µM at Thymidylate synthase [1]; > 35 µM against Dihydrofolate reductase; 17 µM in [2]; 350 nM in experiment [4]; > 35 µM in experiment [5]; 2900 nM on Thymidylate synthase [6]. The inhibition in the experiment with Escherichia coli [3] is 0%. Also, in [7], the Ratio IC50 was > 100.
As for `Cc1cc2nc(N)[nH]c(=O)c2n1Cc1ccncc1`, the IC50 is 12 µM at Thymidylate synthase [1]; > 37 µM against Dihydrofolate reductase; 15 µM in [2]; 20000 nM in experiment [4]; 39 µM in experiment [5]; 2300 nM on Thymidylate synthase [6]. Further, the Ratio IC50 in experiment [7] is > 1.8.
Regarding `Cc1[nH]c2nc(N)[nH]c(=O)c2c1Sc1ccc(Cl)c(Cl)c1`, in experiment [12], the inhibition is 0%. In addition, the IC50 against Dihydrofolate reductase is > 62 µM.
For the molecule `Cc1cc2nc(N)[nH]c(=O)c2n1Cc1cc(Br)cc(Br)c1`, the IC50 against Thymidylate synthase [1] was > 20 µM; on Dihydrofolate reductase, > 24 µM; in experiment [2] it was > 20 µM; in [4] it was 24000 nM; in experiment [5], > 24 µM; against Thymidylate synthase [6] it was 10000 nM. Moreover, the inhibition with Toxoplasma gondii [13] is 24%; with Escherichia coli [3], 0%; in experiment [14], 0%; in experiment [15] it was 36%. In addition, the Ratio IC50 in experiment [7] was > 1.
`Cc1cc2nc(N)[nH]c(=O)c2n1Cc1ccc(Cl)c(Cl)c1`: the IC50 against Thymidylate synthase [1] was 27 µM; against Dihydrofolate reductase it was > 32 µM; in [2], 27 µM; in experiment [4], 1600 nM; in experiment [5], > 32 µM; against Thymidylate synthase [6], 5400 nM. The molecule further had an inhibition in the experiment on Escherichia coli [3] of 0%. Moreover, the Ratio IC50 in [7] was > 20.
Take `Cc1cc2nc(N)[nH]c(=O)c2n1Cc1ccc(OC(F)(F)F)cc1`: the IC50 at Thymidylate synthase [1] was 7.5 µM; on Dihydrofolate reductase, > 35 µM; in experiment [2] it was 13 µM; in experiment [4], 300 nM; in experiment [5], > 35 µM; against Thymidylate synthase [6] it was 1300 nM. Besides, the inhibition in the experiment with Escherichia coli [3] was determined as 0%. Also, in experiment [7], the Ratio IC50 was > 117.
For the molecule `Cc1cc2nc(N)[nH]c(=O)c2n1Cc1ccc([N+](=O)[O-])cc1`, the IC50 against Thymidylate synthase [1] is 14 µM; against Dihydrofolate reductase it was 33 µM; in experiment [2] it was 28 µM; in experiment [4], 330 nM; in experiment [5] it was > 33 µM; on Thymidylate synthase [6], 1400 nM. Also, the inhibition in the experiment on Escherichia coli [3] worked out at 0%. Besides, the Ratio IC50 in experiment [7] turned out to be 100.

For orientation: IC50 means the concentration that inhibits the measured activity by half. A high value points to a need for much substance. As a reminder, the inhibition is the drop in the measured response relative to a control, in per cent.
